Eight molecules from ChEMBL document CHEMBL1201862, “PubChem BioAssay data set” (2004) can be followed below.

Common to all, as to assay: growth of human tumour cells (NCI), 48 h
For assay [1], the system named is IGROV-1.
Assay [2] deals with HCC 2998.
Assay [3] relates to SN12C.
Assay [4] has as its system ACHN.
The subject of assay [5] is Malme-3M.
Assay [6] deals with SK-OV-3.
In assay [7] the test system is SW-620.
Assay [8] deals with NCI-H522.
The subject of assay [9] is HT-29.
The test system of assay [10] is CAKI-1.
Assay [11] deals with M14.
Assay [12] deals with UACC-257.
In assay [13] the test system is UO-31.
The test system of assay [14] is SR.
Assay [15] has as its system SNB-75.
Assay [16] has as its system HOP-62.
Assay [17] has as its system HCT-15.
For assay [18], the system named is OVCAR-8.

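Briefly, cells in 96-well plates were exposed to five compound concentrations for 48 h, and endpoints were estimated by linear interpolation. Abbreviation: GI50, concentration required for 50% inhibition of growth.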 The source made the active and inactive calls. Rule as the data show it: active = GI50 up to about 1.1 µM and inactive = higher.

With `O=C(c1ccccc1)[C@H]1Nc2cnccc2C2c3ccccc3CC21` (some centres undefined), the GI50 in [1] is 24 µM (inactive); in assay [2], 39.4 µM (inactive); in assay [3], 8.59 µM (inactive); in [4], 13.8 µM (inactive); in assay [5], 12.9 µM (inactive); in assay [6], 20.2 µM (inactive). In addition, the GI50 was 17.9 µM (inactive) in [7]; 2.78 µM (inactive) in assay [8]; 19.4 µM (inactive) in assay [9]; 24.9 µM (inactive) in [10]; 6.82 µM (inactive) in assay [11]; 13.2 µM (inactive) in [12]. Besides, the GI50 in [13] was 7.21 µM (inactive); in assay [14] it was 7.43 µM (inactive); in assay [15], 16.2 µM (inactive); in assay [16], 25 µM (inactive); in assay [17], 8.95 µM; in assay [18], 8.24 µM (inactive).
On to `CN1C(c2ccccc2)CC(C)(O)CC1c1ccccc1` (centres undefined), for which the GI50 in assay [1], in assay [2], in assay [3], in assay [4], in [5] and in [6] was > 100 µM (inactive) each time. The GI50 in [7], in assay [8], in assay [9], in assay [10], in assay [11] and in [12] was > 100 µM (inactive) throughout. Also, the GI50 in [13] was > 100 µM (inactive); in assay [14], > 100 µM (inactive); in assay [15] it was > 100 µM (inactive); in assay [16], > 100 µM (inactive); in assay [17], above 100 µM; in assay [18] it was > 100 µM (inactive).
Regarding `CC(=O)OC(OC(C)=O)c1ncccc1C(=O)OC(C)C`, the GI50 in [1] was > 100 µM (inactive); in assay [2] it was 42.6 µM (inactive); in [3], > 100 µM (inactive); in [4], > 100 µM (inactive); in assay [5], > 100 µM (inactive); in [6], > 100 µM (inactive). The GI50 in [7] was > 100 µM (inactive); in [8], 75.7 µM (inactive); in assay [9], 33.3 µM (inactive); in [10] it was > 100 µM (inactive); in assay [11], > 100 µM (inactive); in assay [12], > 100 µM (inactive). Also, the GI50 was 61.7 µM (inactive) in assay [13]; 15.1 µM (inactive) in assay [14]; 81.8 µM (inactive) in assay [15]; > 100 µM (inactive) in [16]; 33.8 µM in assay [17]; > 100 µM (inactive) in assay [18].
For `CN(C)C1=NC2=S(SC(Nc3ccccc3)=N2)S1` (centres undefined), the GI50 in assay [1] was 15.7 µM (inactive); in assay [2], 21 µM (inactive); in assay [3], 31.3 µM (inactive); in assay [4], 11.9 µM (inactive); in assay [5], 16.1 µM (inactive); in [6], 46.9 µM (inactive). Also, the GI50 in assay [7] is 46.5 µM (inactive); in [8] it was 10.3 µM (inactive); in assay [9] it was 33.6 µM (inactive); in assay [10], 26.5 µM (inactive); in [11], 58.1 µM (inactive); in [12] it was 7.8 µM (inactive). Besides, the GI50 in [13] was 24 µM (inactive); in assay [14] it was 17.1 µM (inactive); in assay [15], 28.7 µM (inactive); in assay [16], 24.2 µM (inactive); in [17] it was 11.9 µM; in assay [18], 26.6 µM (inactive).
Consider `O=C1CCC(=O)c2cc(Br)ccc2N1`, for which the GI50 in [1], in [2], in assay [3], in assay [4], in assay [5] and in [6] was > 100 µM (inactive) throughout. The GI50 in [7] is > 57.8 µM (inactive); in [8] it was > 100 µM (inactive); in assay [9], > 100 µM (inactive); in [10], > 100 µM (inactive); in assay [11] it was > 100 µM (inactive); in assay [12] it was > 100 µM (inactive). The GI50 in [13] was > 100 µM (inactive); in assay [14] it was 26.4 µM (inactive); in assay [15] it was > 100 µM (inactive); in assay [16] it was > 100 µM (inactive); in [17], above 100 µM; in [18], > 100 µM (inactive).
Turning to `CC1CCC2c3c([nH]c4ccccc34)C3C(=O)N(c4ccccc4)C(=O)C3C2C1` (centres undefined), the GI50 in assay [1] is 19.7 µM (inactive); in assay [2], 106 µM (inactive); in assay [3], > 250 µM (inactive); in [4], 21.8 µM (inactive); in assay [5] it was 54.3 µM (inactive); in [6], 10.1 µM (inactive). In addition, the GI50 is > 250 µM (inactive) in assay [7]; 142 µM (inactive) in assay [8]; > 250 µM (inactive) in assay [9]; > 250 µM (inactive) in assay [10]; 46.1 µM (inactive) in [11]; > 250 µM (inactive) in assay [12]. Moreover, the GI50 in assay [13] is 58.3 µM (inactive); in assay [14], 65 µM (inactive); in assay [15], 2.65 µM (inactive); in assay [16] it was 32.7 µM (inactive); in assay [17], above 250 µM; in assay [18], 43.5 µM (inactive).
For the molecule `C/C(=N\N(C)C)c1sc(-n2nc(-c3ccccc3)cc2-c2ccccc2)nc1C`, the GI50 in assay [1], in [2], in assay [3], in [4], in [5] and in assay [6] was > 100 µM (inactive) in each case. For the same molecule, the GI50 in [7], in assay [8], in assay [9], in assay [10], in assay [11] and in [12] was > 100 µM (inactive) each time. In addition, the GI50 in [13] was > 100 µM (inactive); in [14] it was > 100 µM (inactive); in [15] it was 15.2 µM (inactive); in [16] it was > 100 µM (inactive); in assay [17] it was above 100 µM; in assay [18] it was > 100 µM (inactive).
Turning to `COc1ccc(-n2/c(=N/C(=S)N(C)C)ss/c2=N\C(=S)N(C)C)cc1`, the GI50 is 14.2 µM (inactive) in assay [1]; > 100 µM (inactive) in assay [2]; > 100 µM (inactive) in assay [3]; > 100 µM (inactive) in assay [4]; > 100 µM (inactive) in assay [5]; 27.8 µM (inactive) in [6]. The GI50 is > 100 µM (inactive) in assay [7]; 2.54 µM (inactive) in assay [8]; 2.26 µM (inactive) in [9]; > 100 µM (inactive) in [10]; 36.9 µM (inactive) in [11]; > 100 µM (inactive) in assay [12]. Moreover, the GI50 was > 100 µM (inactive) in assay [13]; > 100 µM (inactive) in [14]; 22.8 µM (inactive) in [15]; 50.7 µM (inactive) in assay [16]; above 100 µM in assay [17]; 37 µM (inactive) in assay [18].
